Test results reported in article PMC3857906, “Ligand-Specific Regulation of the Endogenous Mu-Opioid Receptor by Chronic Treatment with Mu-Opioid Peptide Agonists” (BioMed Research International, 2013).
Where two headings read alike, the source gives them in different places.

Columns and labels:
[1] = Tail-flick (TF) antinociceptive assay after icv peptide administration; type: in vivo, rat; conditions: for treatment duration until behavioral tolerance complete: 10 μg icv twice daily, data not shown
Procedure: For intracerebroventricular (icv) peptide administration, the rats were implanted with a stainless steel Luer cannula (10 mm long) aimed at the right lateral cerebral ventricle under Nembutal (35 mg/kg, intraperitoneally) anesthesia. The stereotaxic coordinates were 0.2 mm posterior, 1.7 mm lateral to the bregma, and 3.7 mm deep from the dural surface, according to the atlas of Pellegrino et al.. Cannulas were secured to the skull with dental cement and acrylate. The experiments were started 5 days after icv cannulation. All icv treatments were delivered to freely moving animals to prevent unspecific effects. Upon conclusion of the experiments, 10 μL of methylene blue was injected into the ventricle of decapitated animals and the position of the cannula was inspected visually. Animals with improper cannula placement were excluded from the final statistical analysis.
(§1) The peptides were dissolved in artificial cerebrospinal fluid (CSF) and injected in a volume of 2 μL. Endomorphins were administered either acutely at the indicated doses (100 pg–20 μg) or chronically at 20 μg for 10 days (twice daily) and tested at the indicated times. Vehicle control groups obtaining CSF were used in all experiments, and no changes were detected in the antinociceptive response of the control group. […] Animals were killed 16 hrs after drug treatments by decapitation immediately followed by subcellular fractionation.
The original method of D'Amour was used to determine analgesia in the rat by measuring the time required to respond to a radiating heat stimulus. A beam light was focused on the tip of the tail, and the latency required for the rat to remove its tail was determined before (baseline) and after drug administration. The animals were tested at the times shown after injection of the peptides. The antinociceptive effect was expressed according to the equation: (TFn − TFo) × 100/TFmax − TFo, where TFo is the tail-flick latency before drug administration, TFn is the value of a repeated corresponding measurement after drug injection, and TFmax indicates the cutoff time which was set at 10 sec in our assays. Statistical analysis of the data of tail-flick antinociceptive test was made by ANOVA. For significant ANOVA values, groups were compared by Tukey's test for multiple comparisons with unequal cell size. A probability level, P < 0.05, was accepted to label significant differences.

[2] = molecular target: T1, mu-opioid receptors (coupling to G-proteins) (Rattus norvegicus, UniProt P33535); test: DAMGO-stimulated [35S]GTPγS binding in rat brain subcellular fractions (SPM, MI) after in vivo chronic opioid peptide treatment; type: biochemical; conditions: for effect of chronic treatment on G-protein coupling / [35S]GTPγS incorporation: 10 μg icv twice daily for 8 days
T1 construct: fresh forebrains of four rats were pooled, gently homogenized; from tissue; host or cells: rat forebrain, synaptic plasma membrane (SPM) and microsomal (MI) fractions, from vehicle- or peptide-treated animals
T1 sequence (P33535 whole entry): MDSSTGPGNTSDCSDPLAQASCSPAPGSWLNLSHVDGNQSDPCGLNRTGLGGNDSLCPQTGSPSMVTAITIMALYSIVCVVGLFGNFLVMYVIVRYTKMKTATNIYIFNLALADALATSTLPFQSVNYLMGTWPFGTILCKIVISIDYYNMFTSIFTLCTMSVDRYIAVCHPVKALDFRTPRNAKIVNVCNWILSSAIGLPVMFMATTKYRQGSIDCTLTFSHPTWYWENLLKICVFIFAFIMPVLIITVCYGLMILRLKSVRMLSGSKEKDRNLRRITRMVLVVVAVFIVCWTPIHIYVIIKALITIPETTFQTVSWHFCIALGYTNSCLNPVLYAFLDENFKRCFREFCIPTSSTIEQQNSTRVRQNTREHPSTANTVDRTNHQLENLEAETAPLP
Procedure: The peptides were dissolved in artificial cerebrospinal fluid (CSF) and injected in a volume of 2 μL. […] Animals were killed 16 hrs after drug treatments by decapitation immediately followed by subcellular fractionation.
Subcellular fractions of rat brains were purified as published. Briefly, fresh forebrains of four rats were pooled, gently homogenized in 10 volumes (v/w) of ice-cold buffer (5 mM Tris-HCl pH 7.4, 50 μM CaCl2, 0.5 mM dithiothreitol), and supplemented with 10% sucrose. All sucrose solutions were made in the above buffer. The homogenate was spun at 1,000 ×g for 10 min. The resulting pellet was resuspended in the above buffer and spun again. The combined supernatants were spun at 12,000 ×g for 20 min. The pellets were suspended in 10% sucrose and subjected to consecutive centrifugations at 20,000 ×g for 25 min and 14,000 ×g for 20 min twice resulting in crude synaptic plasma membranes (SPM). The resulting pellets were lysed followed by fractionation on a 10%, 28.5%, and 34% sucrose density step gradient that was spun at 100,000 ×g for 2 h. Highly enriched SPMs were obtained from the 28/34% interface. Crude microsomal (MI) fractions were obtained from the 12,000 ×g supernatant by consecutive centrifugations at 20,000 ×g for 25 min and 100,000 ×g for 1 h. MI fractions were purified on a 10% and 28.5% sucrose step gradient centrifuged at 100,000 ×g for 2 h and collected at 10/28.5% interface. SPM and MI fractions were diluted threefold with 50 mM Tris-HCl buffer and pelleted at 100,000 ×g for 1 h to remove sucrose. The resulting pellets were taken up in 50 mM Tris-HCl (pH 7.4) buffer to yield in 0.3–0.8 mg membrane protein/ml and were freshly used.
(§2) The assay was performed as published with slight modifications. Briefly, rat brain membrane fractions (≈10 μg of protein) were incubated with [^35S]GTPγS (0.05 nM) and 5-6 concentrations (10^−9−10^−4 M) of opioid peptides in the presence of 100 μM GDP in Tris-EGTA (50 mM Tris-HCl, 1 mM EGTA and 5 mM MgCl2; pH 7.4) buffer in a total volume of 1 mL for 60 min at 30°C. Nonspecific binding was determined with 10 μM GTPγS and subtracted. Bound and free [^35S]GTPγS were separated by vacuum filtration through Whatman GF/F filters using a Brandel M24-R Cell Harvester (Brandel, Gaithersburg, MD, USA). Filters were rapidly washed with 3 × 5 mL ice-cold 50 mM Tris-HCl (pH 7.4) buffer, air-dried, and counted in a toluene-based scintillation cocktail in a Wallac 1409 scintillation counter (Wallac, Turku, Finland). All assays were performed in triplicate and repeated at least three times. Curves were constructed and analyzed by fitting sigmoidal dose-response curves using the GraphPad Prism 4 program (GraphPad Prism Software Inc) to obtain potency (EC50, concentration of the ligand to give half-maximal effect) and efficacy (E max, % maximal stimulation over basal activity) values. Basal activities were measured in the absence of opioid ligands and set as 0%. The data reported are means ± S.E.M.

[3] = molecular target: T2, mu-opioid receptors (G-protein activation) (Rattus norvegicus, UniProt P33535); test: Ligand-stimulated [35S]GTPγS functional assay in crude rat brain membranes; type: biochemical
T2 construct: from tissue; host or cells: rat brain without cerebella, crude membranes
T2 sequence (P33535 whole entry): as above
Procedure: as §2

mu-opioid receptors [4] = molecular target: T3, mu-opioid receptors (Rattus norvegicus, UniProt P33535); test: [3H]DAMGO homologous displacement binding in rat brain subcellular fractions (SPM, MI) after in vivo treatment; set-up: fresh forebrains of four rats were pooled, gently homogenized; from tissue; host or cells: rat forebrain, synaptic plasma membrane (SPM) and microsomal (MI) fractions, from vehicle- or peptide-treated animals; conditions: chronic treatment, vs vehicle control
T3 sequence (P33535 whole entry): as above
Procedure: as §1, with “times.” for “times. Vehicle control groups obtaining CSF were used in all experiments, and no changes were detected in the antinociceptive response of the control group.”
Subcellular fractions of rat brains were purified as published. Briefly, fresh forebrains of four rats were pooled, gently homogenized in 10 volumes (v/w) of ice-cold buffer (5 mM Tris-HCl pH 7.4, 50 μM CaCl2, 0.5 mM dithiothreitol), and supplemented with 10% sucrose. All sucrose solutions were made in the above buffer. The homogenate was spun at 1,000 ×g for 10 min. The resulting pellet was resuspended in the above buffer and spun again. The combined supernatants were spun at 12,000 ×g for 20 min. The pellets were suspended in 10% sucrose and subjected to consecutive centrifugations at 20,000 ×g for 25 min and 14,000 ×g for 20 min twice resulting in crude synaptic plasma membranes (SPM). […]
Filters were rapidly washed with 3 × 5 mL ice-cold 50 mM Tris-HCl (pH 7.4) buffer, air-dried, and counted in a toluene-based scintillation cocktail in a Wallac 1409 scintillation counter (Wallac, Turku, Finland). […]

[5] = shown previously; cited from earlier work
mu-opioid receptors [6] = molecular target: T3, mu-opioid receptors; conditions: icv administration, in situ autoradiography; cited from earlier work

## NC(=O)[C@H](Cc1ccccc1)NC(=O)[C@H](Cc1ccccc1)NC(=O)[C@H]1CCCC[C@H]1NC(=O)[C@@H](N)Cc1ccc(O)cc1 [ACHC-EM2, cis-1S,2R-aminocyclohexanecarboxylic acid^2-endomorphin-2]
[1]; 20 μg icv twice daily, rat tail-flick
  treatment duration until analgesic tolerance complete (antinociceptive effect ceased): ≤ 10 days
[1]; 20 μg icv twice daily, tested 5 and 15 min after injection
  day by which decrease of antinociceptive effect became statistically significant vs day 1: ≤ 5 days
[1]; rat tail-flick, after icv injection
  time of peak acute antinociceptive effect: 10 to 15 min
[1]; rat tail-flick, following icv injection
  time by which acute antinociceptive effect dissipated: ≤ 40 min
[1]; rat tail-flick, icv, lower doses, concentration-dependent
  increase in analgesic response compared to base-line values: 20–50%

## C[C@@H](NC(=O)[C@@H](N)Cc1ccc(O)cc1)C(=O)NCC(=O)N(C)[C@@H](Cc1ccccc1)C(=O)NCCO [DAMGO, Tyr-D-Ala-Gly-(NMe)Phe-Gly-ol]
[1]
  treatment duration until behavioral tolerance complete: ≤ 8 days
[2]
  effect of chronic treatment on G-protein coupling / [35S]GTPγS incorporation: did not cause any change
[2]; read-out: E max (% over basal) MI Treated
  Emax: 72 ± 9%
[2]; read-out: E max (% over basal) SPM Treated
  Emax: 130 ± 14%
[2]; read-out: efficacy (E max) of DAMGO in control MI, MI of vehicle administered rats, % over basal
  Emax: 85 ± 9%
[2]; read-out: efficacy (E max) of DAMGO in control SPM, SPM of vehicle administered rats, % over basal
  Emax: 95 ± 5%
[3]
  agonist character in [35S]GTPγS assay: full agonist
mu-opioid receptors [4]
  decrease in the density of surface mu-sites (SPM): 22%
[5]
  antinociception: about 80%
  time of peak antinociceptive effect: about 30 min

## COC(=O)/C=C/C(=O)N[C@@H]1CC[C@@]2(O)[C@H]3Cc4ccc(O)c5c4[C@@]2(CCN3CC2CC2)[C@H]1O5 [beta-funaltrexamine]
mu-opioid receptors [6]
  reduction of the density of mu-opioid receptors throughout the brain: 40–50%

## Tyr-D-Ala-Gly-(NMe)Phe-CH2Cl [DAMCK]
[1]
  treatment duration until behavioral tolerance complete: ≤ 8 days
[2]
  effect of chronic treatment on G-protein coupling / [35S]GTPγS incorporation: attenuated G-protein coupling in the MI fraction
mu-opioid receptors [4]
  increase in the density of mu-sites in the MI (light membrane) fraction: 40%
[5]
  antinociception: about 80%
  duration of antinociception: apparently irreversible antinociception
